{"source": "patent US9890171B2", "about": "“Aldosterone synthase inhibitors” (Boehringer Ingelheim International GmbH, priority 2014, dated 2018)", "data": [{"target": "aldosterone synthase (CYP11B2) (Macaca fascicularis, UniProt A0A2K5UPL9)", "sequence (A0A2K5UPL9 1-503)": "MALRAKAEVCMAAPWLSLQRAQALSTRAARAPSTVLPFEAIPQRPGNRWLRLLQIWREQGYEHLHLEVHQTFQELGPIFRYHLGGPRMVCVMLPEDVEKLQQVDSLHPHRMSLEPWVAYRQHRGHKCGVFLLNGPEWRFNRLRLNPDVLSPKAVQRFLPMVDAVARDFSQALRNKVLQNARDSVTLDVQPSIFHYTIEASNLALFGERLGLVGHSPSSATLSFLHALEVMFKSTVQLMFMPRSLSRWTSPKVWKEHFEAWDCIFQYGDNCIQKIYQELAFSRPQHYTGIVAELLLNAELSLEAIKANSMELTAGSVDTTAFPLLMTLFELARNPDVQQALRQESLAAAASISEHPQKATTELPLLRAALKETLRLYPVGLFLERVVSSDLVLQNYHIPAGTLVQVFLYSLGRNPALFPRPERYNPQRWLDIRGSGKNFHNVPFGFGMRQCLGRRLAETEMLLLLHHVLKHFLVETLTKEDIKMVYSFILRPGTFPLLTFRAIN", "assay": "aldosterone synthase inhibition assay", "assay_type": "biochemical, cynomolgus monkey", "settings": "cynomolgus adrenal gland mitochondria, 2 μM corticosterone, aldosterone quantified by mass spectrometry", "experimental": "The aldosterone synthase inhibition assay employs cynomolgus adrenal gland mitochondria as the source of aldosterone synthase (CYP11B2). Mitochondria are prepared from frozen cynomolgus monkey adrenal glands according to Method A described in by J. D. McGarry et al. (Biochem. J., 1983, 214, 21-28), with a final resuspension in the AT buffer described in R. Yamaguchi et al. (Cell Death and Differentiation, 2007, 14, 616-624), frozen as aliquots in liquid nitrogen and stored at −80° C. until use.\nAssays are performed in 96-well format in a final volume of 60 μL/well, containing 100 mM potassium phosphate, pH 7.4, 1% (v/v) DMSO, and additionally, 2 μM of corticosterone and […] of mitochondrial protein. Reactions are started by the addition of NADPH to 1 mM and allowed to proceed for 60-90 minutes at 37° C. Reactions are terminated by the addition of […]. One hundred microliters are then transferred to a glass filter plate and centrifuged at 570×g for 5 minutes and the filtrate is collected. Reaction product aldosterone is quantified by mass spectrometry. To determine the assay blank value (0% activity), NADPH is omitted from some reactions.\nDose dependent inhibition is quantified by the inclusion of compound at various concentrations. Maximum activity (100%) is defined by reactions containing NADPH, but without compound. Activities at each concentration are expressed as a percentage of the maximum activity (y-axis) and plotted against concentration of compound (x-axis) and the concentration corresponding to 50% activity (IC50) determined using the XLFit curve-fitting program using a 4-parameter logistic model.", "units": {"IC50": "nM"}, "values": [{"smiles": "CCC(=O)NC1COCc2c(-c3ccc4c(cnn4C)c3)cncc21", "note": "(single isomer, unassigned) [Compound 72, N-[8-(1-Methyl-1H-indazol-5-yl)-3,4-dihydro-1H-pyrano[4,3-c]pyridin-4-yl]-propionamide]", "IC50": 2300}, {"smiles": "CCC(=O)NC1COCc2c(-c3ccc4c(cnn4C)c3)cncc21", "note": "(single isomer, unassigned) [Compound 73, N-[8-(1-Methyl-1H-indazol-5-yl)-3,4-dihydro-1H-pyrano[4,3-c]pyridin-4-yl]-propionamide]", "IC50": 34.6}, {"smiles": "CC(=O)NC1COCc2c(-c3ccc4cnn(C)c4c3)cncc21", "note": "(single isomer, unassigned) [Compound 74, N-[8-(1-Methyl-1H-indazol-6-yl)-3,4-dihydro-1H-pyrano[4,3-c]pyridin-4-yl]-acetamide]", "IC50": 25.6}, {"smiles": "Cn1ncc2ccc(-c3cncc4c3COCC4NC(=O)C3CC3)cc21", "note": "(single isomer, unassigned) [Compound 75, Cyclopropanecarboxylic acid [8-(1-methyl-1H-indazol-6-yl)-3,4-dihydro-1H-pyrano[4,3-c]pyridin-4-yl]-amide]", "IC50": 26.4}, {"smiles": "CCC(=O)NC1COCc2c(-c3ccc4cnn(C)c4c3)cncc21", "note": "(single isomer, unassigned) [Compound 76, N-[8-(1-Methyl-1H-indazol-6-yl)-3,4-dihydro-1H-pyrano[4,3-c]pyridin-4-yl]-propionamide]", "IC50": 17.9}, {"smiles": "CC(C)C(=O)NC1COCc2c(-c3ccc4cnn(C)c4c3)cncc21", "note": "(single isomer, unassigned) [Compound 77, N-[8-(1-Methyl-1H-indazol-6-yl)-3,4-dihydro-1H-pyrano[4,3-c]pyridin-4-yl]-isobutyramide]", "IC50": 32.6}, {"smiles": "CCS(=O)(=O)NC1COCc2c(-c3cc4c(cnn4C)cc3C)cncc21", "note": "(single isomer, unassigned) [Compound 78, Ethanesulfonic acid [8-(1,5-dimethyl-1H-indazol-6-yl)-3,4-dihydro-1H-pyrano[4,3-c]pyridin-4-yl]-amide]", "IC50": 2800}, {"smiles": "CCS(=O)(=O)NC1COCc2c(-c3cc4c(cnn4C)cc3C)cncc21", "note": "(single isomer, unassigned) [Compound 79, Ethanesulfonic acid [8-(1,5-dimethyl-1H-indazol-6-yl)-3,4-dihydro-1H-pyrano[4,3-c]pyridin-4-yl]-amide]", "IC50": 653}, {"smiles": "Cn1ncc2ccc(-c3cncc4c3COCC4NS(C)(=O)=O)cc21", "note": "(single isomer, unassigned) [Compound 80, N-[8-(1-Methyl-1H-indazol-6-yl)-3,4-dihydro-1H-pyrano[4,3-c]pyridin-4-yl]-methanesulfonamide]", "IC50": 2100}, {"smiles": "Cn1ncc2ccc(-c3cncc4c3COCC4NS(C)(=O)=O)cc21", "note": "(single isomer, unassigned) [Compound 81, N-[8-(1-Methyl-1H-indazol-6-yl)-3,4-dihydro-1H-pyrano[4,3-c]pyridin-4-yl]-methanesulfonamide]", "IC50": 28.5}, {"smiles": "CCS(=O)(=O)NC1COCc2c(-c3ccc4c(cnn4C)c3)cncc21", "note": "(single isomer, unassigned) [Compound 82, Ethanesulfonic acid [8-(1-methyl-1H-indazol-5-yl)-3,4-dihydro-1H-pyrano[4,3-c]pyridin-4-yl]-amide]", "IC50": 215}, {"smiles": "CCS(=O)(=O)NC1COCc2c(-c3ccc4cnn(C)c4c3)cncc21", "note": "(single isomer, unassigned) [Compound 83, Ethanesulfonic acid [8-(1-methyl-1H-indazol-6-yl)-3,4-dihydro-1H-pyrano[4,3-c]pyridin-4-yl]-amide]", "IC50": 31.3}, {"smiles": "O=C1NCCc2cc(-c3cncc4c3COC3(CC3)C4O)ccc21", "note": "(single isomer, unassigned) [Compound 84, 6-[4-hydroxyspiro[1,4-dihydropyrano[4,3-c]pyridine-3,1′-cyclopropane]-8-yl]-3,4-dihydro-2H-isoquinolin-1-one]", "IC50": 255}, {"smiles": "O=C1NCCc2cc(-c3cncc4c3COC3(CC3)C4O)ccc21", "note": "(single isomer, unassigned) [Compound 85, 6-[4-hydroxyspiro[1,4-dihydropyrano[4,3-c]pyridine-3,1′-cyclopropane]-8-yl]-3,4-dihydro-2H-isoquinolin-1-one]", "IC50": 90.9}, {"smiles": "Cc1ncc2ccc(-c3cncc4c3COCC4O)cn12", "note": "(single isomer, unassigned) [Compound 86, 8-(3-Methyl-imidazo[1,5-a]pyridin-6-yl)-3,4-dihydro-1H-pyrano[4,3-c]pyridin-4-ol]", "IC50": 494}, {"smiles": "Cc1ncc2ccc(-c3cncc4c3COCC4O)cn12", "note": "(single isomer, unassigned) [Compound 87, 8-(3-Methyl-imidazo[1,5-a]pyridin-6-yl)-3,4-dihydro-1H-pyrano[4,3-c]pyridin-4-ol]", "IC50": 123}, {"smiles": "Cc1ncc2ccc(-c3cncc4c3COC3(CC3)C4O)cn12", "note": "(single isomer, unassigned) [Compound 88, 8-(3-methylimidazo[1,5-a]pyridin-6-yl)spiro[1,4-dihydropyrano[4,3-c]pyridine-3,1′-cyclopropane]-4-ol]", "IC50": 128}, {"smiles": "Cc1ncc2ccc(-c3cncc4c3COC3(CC3)C4O)cn12", "note": "(single isomer, unassigned) [Compound 89, 8-(3-methylimidazo[1,5-a]pyridin-6-yl)spiro[1,4-dihydropyrano[4,3-c]pyridine-3,1′-cyclopropane]-4-ol]", "IC50": 73}, {"smiles": "Cc1noc2ccc(-c3cncc4c3COCC4O)cc12", "note": "(single isomer, unassigned) [Compound 90, 8-(3-Methyl-benzo[d]isoxazol-5-yl)-3,4-dihydro-1H-pyrano[4,3-c]pyridin-4-ol]", "IC50": 8.5}, {"smiles": "Cc1nnc2ccc(-c3cncc4c3COC3(CC3)C4O)cn12", "note": "(single isomer, unassigned) [Compound 91, 8-(3-methyl-[1,2,4]triazolo[4,3-a]pyridin-6-yl)spiro[1,4-dihydropyrano[4,3-c]pyridine-3,1′-cyclopropane]-4-ol]", "IC50": 220}, {"smiles": "Cn1ncc2c(F)cc(-c3cncc4c3COC3(CC3)C4O)cc21", "note": "(single isomer, unassigned) [Compound 92, 8-(4-fluoro-1-methyl-indazol-6-yl)spiro[1,4-dihydropyrano[4,3-c]pyridine-3,1′-cyclopropane]-4-ol]", "IC50": 11.5}, {"smiles": "Cc1nnc2ccc(-c3cncc4c3COC3(CC3)C4O)cn12", "note": "(single isomer, unassigned) [Compound 93, 8-(3-methyl-[1,2,4]triazolo[4,3-a]pyridin-6-yl)spiro[1,4-dihydropyrano[4,3-c]pyridine-3,1′-cyclopropane]-4-ol]", "IC50": 271}, {"smiles": "Cc1noc2ccc(-c3cncc4c3COCC4O)cc12", "note": "(single isomer, unassigned) [Compound 94, 8-(3-Methyl-benzo[d]isoxazol-5-yl)-3,4-dihydro-1H-pyrano[4,3-c]pyridin-4-ol]", "IC50": 10.1}, {"smiles": "Cc1nnc2ccc(-c3cncc4c3COCC4O)cn12", "note": "(single isomer, unassigned) [Compound 95, 8-(3-Methyl-[1,2,4]triazolo[4,3-a]pyridin-6-yl)-3,4-dihydro-1H-pyrano[4,3-c]pyridin-4-ol]", "IC50": 766}, {"smiles": "Cn1ncc2c(F)cc(-c3cncc4c3COCC4O)cc21", "note": "(single isomer, unassigned) [Compound 96, 8-(4-Fluoro-1-methyl-1H-indazol-6-yl)-3,4-dihydro-1H-pyrano[4,3-c]pyridin-4-ol]", "IC50": 8.1}]}]}
